According to US9776149B2, “Compositions and methods for preparing nanoformulations and systems for nano-delivery using focused acoustics” (Covaris, Inc., priority 2010, dated 2017):
Values belong to the compound of their own block, whether it stands above or below them.

Tests used:
[1] = Particle size of drug suspensions before and after focused acoustic processing (Malvern Mastersizer 2000 / Zetasizer Nano ZS-90); format: physicochemical
From the text: Particle size distributions of mixtures and/or nanoformulations described herein may be measured using dynamic laser light scattering, also called Photon correlation spectroscopy (e.g., using Malvern Zetasizer-S, Zetasizer Nano ZS-90 or Mastersizer 2000 instruments; Malvern Instruments Inc.; Southborough Mass.). The Malvern Zetasizer-S instrument was used to estimate average particle sizes with a 4 mW He—Ne laser operating at a wavelength of 633 nm and an avalanche photodiode detector (APD). The average size of particles in a mixture may be estimated as the mean hydrodynamic size. The particle size distribution may be estimated according to polydispersity index (PDI), which is known in the art as a measure of the tightness of a distribution. The average size of particles and the PDI of mixtures and nanoformulations discussed herein are calculated according to the International Standard on dynamic light scattering, ISO 13321.
Suspension mixtures were prepared in water (deionized and purified by a Barnstead water purification system), methyl cellulose (from Sigma Aldrich) and sodium lauryl sulfate (from Fisher Scientific) for Ibuprofen (from Spectrum Chemicals), Cinnarizine (from Spectrum Chemicals), Indomethacin (from Spectrum Chemicals) and Griseofulvin (from MP Bio). The initial particle sizes of these suspension mixtures was reduced subject to focused acoustic processing using a Covaris SF220 High Performance Formulation Processing System under 150 Watts of power. Particle size distributions were measured using a Malvern Zetasizer Nano ZS-90 in the nanometer particle size range and a Malvern Mastersizer 2000 in the micron particle size range.
Suspension mixtures included water, 0.5% methyl cellulose and 0.1% sodium lauryl sulfate for Ibuprofen, Cinnarizine, Indomethacin and Griseofulvin at 15 mg/mL for batches of 2 mL, 12 mL and 18 mL. The 2 mL, 12 mL and 18 mL batches were subject to focused acoustic processing for 5 minutes, 5 minutes and 10 minutes, respectively. […] The image 400 prior to exposure to the focused acoustics depicts particles that are substantially larger (e.g., 15-20×) than corresponding particles shown in the image 402 after treatment of the particles to the focused acoustics. Particle size results for each of the four compounds are provided in Table 1 (particle sizes are noted as d90 unless specified otherwise).
The concentration of Ibuprofen was then varied in respective suspensions at fixed volumes of 2 mL, 12 mL and 18 mL. […] For instance, after 10 minutes of focused acoustic processing, the percent difference of the greatest variation in d90 particle size (i.e., 39.53-34.04=5.49) between concentrations (i.e., for 1 mg/mL, 15 mg/mL and 100 mg/mL) as compared to the initial d90 particle size (i.e., 203.67) is less than 3%.
Suspension mixtures included water, 0.025% methyl cellulose and 0.1% sodium lauryl sulfate for Ibuprofen, Cinnarizine, Indomethacin and Griseofulvin at 5 mg/mL for 2 mL batches. Each batch was subject to focused acoustic processing for 15 minutes and 30 minutes, respectively. Table 3 lists the average particle size results for each of the four compounds. Within 15 minutes, nano-suspensions were generated with an average particle size ranging between 100 nm and 280 nm for each of the mixtures. Within 30 minutes, an average particle size range of between 20 nm and 97 nm was achieved.
Using a scale-up system and without changing the mechanical attributes of the particle size reduction process, the Ibuprofen suspension mixture was increased to 250 mL. The flow rate was set to 30 mL/min. […] Suspension aliquots were analyzed by HPLC using a stability-indicating method as a guide. […] Through 60 minutes of focused acoustic processing, the particle size distribution of the suspension was measured to have a relative standard deviation of 0.38%. […]

[2] = Homogeneity and chemical stability of 250 mL Ibuprofen suspension (sampling at different depths, HPLC); format: physicochemical
Method: Using a scale-up system and without changing the mechanical attributes of the particle size reduction process, the Ibuprofen suspension mixture was increased to 250 mL. The flow rate was set to 30 mL/min. […] Suspension aliquots were analyzed by HPLC using a stability-indicating method as a guide. […] Through 60 minutes of focused acoustic processing, the particle size distribution of the suspension was measured to have a relative standard deviation of 0.38%. […] FIG. 7 illustrates the results of such size reduction over time for d90 particle size 410, d50 particle size 412 and d10 particle size 414.

[3] = 15 mg/mL suspension, 2 mL, 5 min
[4] = 15 mg/mL suspension, 12 mL, 5 min
[5] = 15 mg/mL suspension, 18 mL, 10 min
[6] = 15 mg/mL suspension, Initial (before focused acoustic processing)
[7] = nano-suspension, 5 mg/mL, 2 mL batch, 15 min
[8] = nano-suspension, 5 mg/mL, 2 mL batch, 30 min
[9] = nano-suspension, 5 mg/mL, 2 mL batch, Initial
[10] = 1, 15 and 100 mg/mL, after 10 minutes of processing

- Particle size (d90) [1, 3]: 20.88 microns
- Particle size (d90) [1, 4]: 38.32 microns
- Particle size (d90) [1, 5]: 28.73 microns
- Particle size (d90) [1, 6]: 239.88 microns
- Average particle size ([1]; in water, after exposure to focused acoustic energy (FIG. 12)): approximately 5 microns
- Average particle size [1, 7]: 127.4 nm
- Average particle size [1, 8]: 20 nm
- Average particle size [1, 9]: 239.88 microns
SMILES: COc1ccc2c(c1)c(CC(=O)O)c(C)n2C(=O)c1ccc(Cl)cc1 [Indomethacin]

- Particle size (d90) [1, 3]: 37.29 microns
- Particle size (d90) [1, 4]: 41.73 microns
- Particle size (d90) [1, 5]: 43.00 microns
- Particle size (d90) [1, 6]: 149.17 microns
- Average particle size ([1]; 250 mL scale-up, 1 hour of processing): 1 micron
- Average particle size ([1]; 250 mL scale-up, about 9 hours): approximately 200 nm
- Average particle size ([1]; 250 mL scale-up, starting): approximately 200 microns
- Average particle size [1, 7]: 280 nm
- Average particle size [1, 8]: 56.85 nm
- Average particle size [1, 9]: 149.17 microns
SMILES: C(=C\c1ccccc1)/CN1CCN(C(c2ccccc2)c2ccccc2)CC1 [Cinnarizine]

- Average particle size ([1]; 250 mL in water, no surfactant, 24 degrees C., in under 80 minutes): less than 10 microns
- Average particle size ([1]; 250 mL in water, no surfactant, before processing): over 200 microns
SMILES: O=c1c(O)c(-c2ccc(O)c(O)c2)oc2cc(O)cc(O)c12 [Quercetin]

- Particle size (d90) [1, 3]: 16.86 microns
- Particle size (d90) [1, 4]: 31.45 microns
- Particle size (d90) [1, 5]: 31.01 microns
- Particle size (d90) [1, 6]: 44.45 microns
- Average particle size [1, 7]: 100 nm
- Average particle size [1, 8]: 90 nm
- Average particle size [1, 9]: 44.45 microns
SMILES: COC1=CC(=O)C[C@@H](C)[C@]12Oc1c(Cl)c(OC)cc(OC)c1C2=O [Griseofulvin]

SMILES: CC(C)Cc1ccc(C(C)C(=O)O)cc1 (stereo not drawn) [Ibuprofen]
- % of particles below 20 microns [1, 3]: (100% of particles
- Particle size (d90) [1, 3]: 12.55 microns
- % of particles below 40 microns [1, 4]: (97% of particles
- Particle size (d90) [1, 4]: 33.35 microns
- % of particles below 40 microns [1, 5]: (97% of particles
- Particle size (d90) [1, 5]: 39.53 microns
- % of particles above 40 microns ([1]; 15 mg/mL suspension, Initial): (97% of particles
- Particle size (d90) [1, 6]: 203.67 microns
- Particles prior to focused acoustics larger than particles after treatment (micrographs, FIG. 6) ([1]; 15 mg/mL, 50× magnification): 15-20 ×
- Greatest variation in d90 particle size between concentrations [1, 10]: 5.49
- Percent difference of greatest variation in d90 between concentrations compared to initial d90 [1, 10]: less than 3%
- Percentage of particles below 40 microns ([1]; 250 mL scale-up, 15 min): 90%
- d10 ([1]; 250 mL scale-up, 15 min): 6.805 microns
- d50 ([1]; 250 mL scale-up, 15 min): 21.701 microns
- d90 ([1]; 250 mL scale-up, 15 min): 39.726 microns
- Percentage of particles below 40 microns ([1]; 250 mL scale-up, 30 min): 93.57%
- d10 ([1]; 250 mL scale-up, 30 min): 6.023 microns
- d50 ([1]; 250 mL scale-up, 30 min): 19.055 microns
- d90 ([1]; 250 mL scale-up, 30 min): 36.328 microns
- Percentage of particles below 40 microns ([1]; 250 mL scale-up, 45 min): 98.31%
- d10 ([1]; 250 mL scale-up, 45 min): 3.583 microns
- d50 ([1]; 250 mL scale-up, 45 min): 16.167 microns
- d90 ([1]; 250 mL scale-up, 45 min): 31.091 microns
- Percentage of particles below 40 microns ([1]; 250 mL scale-up, 60 min): 98.39%
- d10 ([1]; 250 mL scale-up, 60 min): 3.351 microns
- d50 ([1]; 250 mL scale-up, 60 min): 14.843 microns
- d90 ([1]; 250 mL scale-up, 60 min): 28.005 microns
- Percentage of particles below 40 microns ([1]; 250 mL scale-up, Initial): 5%
- d10 ([1]; 250 mL scale-up, Initial): 50 microns
- d50 ([1]; 250 mL scale-up, Initial): 97.834 microns
- d90 ([1]; 250 mL scale-up, Initial): 203.67 microns
- Particle size (d90) ([1]; Table 2, 1 mg/mL, 2 mL, 5 min): 12.55 microns
- Particle size (d90) ([1]; Table 2, 1 mg/mL, 12 mL, 5 min): 33.35 microns
- Particle size (d90) ([1]; Table 2, 1 mg/mL, 18 mL, 10 min): 39.53 microns
- Particle size (d90) ([1]; Table 2, 1 mg/mL, Initial): 203.67 microns
- Particle size (d90) ([1]; Table 2, 15 mg/mL, 2 mL, 5 min): 19.03 microns
- Particle size (d90) ([1]; Table 2, 15 mg/mL, 12 mL, 5 min): 34.88 microns
- Particle size (d90) ([1]; Table 2, 15 mg/mL, 18 mL, 10 min): 34.04 microns
- Particle size (d90) ([1]; Table 2, 15 mg/mL, Initial): 203.67 microns
- Particle size (d90) ([1]; Table 2, 100 mg/mL, 2 mL, 5 min): 29.54 microns
- Particle size (d90) ([1]; Table 2, 100 mg/mL, 12 mL, 5 min): 37.78 microns
- Particle size (d90) ([1]; Table 2, 100 mg/mL, 18 mL, 10 min): 35.53 microns
- Particle size (d90) ([1]; Table 2, 100 mg/mL, Initial): 203.67 microns
- Average particle size [1, 7]: 110 nm
- Average particle size [1, 8]: 97 nm
- Average particle size [1, 9]: 203.67 microns
- Homogeneity of suspension ([2]; first measured time point of 15 minutes): homogeneous
- Chemical stability (impurity growth, HPLC) ([2]; over 60 minutes of processing): no impurity growth
